Values of other authors as cited in patent publication US20120015404A1, “GENE CLUSTER FOR THU[…]” (HUAZHONG AGRICULTURAL UNIVERSITY, priority 2009, published 2012).

Key:
larvae of housefly = larvae of housefly take in thuringiensin
[1] = tested on: larvae of Galleria mellonella
Anastrepha ludens = conditions: third stage larvae
A. obliqua = conditions: third stage larvae
A. serpentine = conditions: third stage larvae
[2] = purified thuringiensin
[3] = low concentration, Helicoverpa armigera

In the case of `Nc1ncnc2c1ncn2[C@@H]1O[C@H](CO[C@H]2[C@H](O)[C@@H](O)[C@@H](O[C@@H](C(=O)O)[C@H](O)[C@H](OP(=O)(O)O)[C@H](O)C(=O)O)O[C@@H]2CO)[C@@H](O)[C@H]1O` [thuringiensin A], the acute lethal effect (Helicoverpa armigera; [3]) is listed as “no acute lethal effect”, the “effect on growth and development” value (Helicoverpa armigera; [3]) is listed as “unrecoverable inhibiting effect” and the “weight of the neonate larvae” value (Helicoverpa armigera; lowest testing concentration, 12 days) is listed as “no apparent increase”.

For `Nc1ncnc2c1ncn2[C@@H]1O[C@H](CO[C@H]2[C@H](O)[C@@H](O)[C@@H](O[C@@H](C(=O)O)[C@H](O)[C@H](OP(=O)(O)O)[C@H](O)C(=O)O)O[C@@H]2CO)[C@@H](O)[C@H]1O` [thuringiensin], the half lethal dose (larvae of housefly) is listed as 0.5 µg/mL, the “toxicity relative to DDT” value ([1]; injected larvae of Galleria mellonella, times of that of DDT) is listed as 1000 times and the half lethal dose ([1]; larvae of Galleria mellonella, injected) is listed as 0.005 µg/g. The “toxicity compared with E605” value (Aedes aegypti) was “less than E605”, the “activity compared with E605” value (Phaedon cochleariae) was “more than E605” and the “activity compared with E605” value (Plutella maculipennis) was “more than E605”. For the same compound, the “activity compared with E605” value (Pieris brassicae) was “more than E605”, the LC50 (Anastrepha ludens) was 0.641 μg/cm^2 and the LC50 (A. obliqua) was 0.512 μg/cm^2. The LC50 (A. serpentine) was 0.408 μg/cm^2 and the mutagenicity [2] was “no mutagenicity”.
